Consider 1 compound from patent US20240174690A1, “ANNULATED 2-AMINO-3-CYANO THIOPHENES AND DERIVATIVES FOR THE TREATMENT OF CANCER” (BOEHRINGER INGELHEIM INTERNATIONAL GMBH, priority 2021, published 2024).

In the data set the test system is Caco-2 cell monolayers. Nature of the data set: Caco-2 assay (permeability PappAB, PappBA, efflux ratio). It is filed as in vitro ADME. The following applies: 10 μM test compound, pH 7.4. An outline of the steps:
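Bidirectional permeability (apical-to-basolateral and reverse) through polarized Caco-2 monolayers, BSA 0.25% on each side, 37 °C. Donor and receiver sampled at 0-90 min after 25-30 min preincubation, analysed by HPLC/MS/MS. Apparent permeabilities derived from transfer rate normalised to area and t=0 donor concentration; ER taken as PappBA over PappAB.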

Take `C[C@H](Oc1cc(-n2ccc(C(=O)N[C@H]3CCOC3)n2)nc(-c2noc3c2CCC[C@@]32CCCc3sc(N)c(C#N)c32)n1)[C@@H]1CCCN1C` [II-193]: where the note is “apical to basolateral”, the “Caco PappAB” value stood at 3.7 ×10⁻⁶ cm/s. Moreover, for the setting “efflux ratio PappBA/PappAB”, the “Caco ER” value turned out to be 8.1.
